Each block holds one compound with its values, some of them ahead of it.
Legend:
[1] = Stability of stock solutions; assay type: physicochemical; conditions: DMSO stock solution, stock solution 0.40 mg/mL, n = 6, read-out: Remaining (%, Mean ± SD)
Experimental: Stock solutions of ISO and trans-stilbene (internal standard, IS) were prepared in DMSO at a final concentration of 1 mg/mL. These solutions were stored at −20 °C and protected from light. The calibration standard and quality control (QC) samples were prepared by serial dilution of the ISO stock solution with pooled blank murine plasma or respective tissue homogenate.
The stability of ISO was evaluated under various storage conditions. Stock solution stability was assessed after storage at room temperature (25 °C) and –20 °C. The stability of ISO in plasma was examined under the following conditions: short-term storage (25 °C for 24 h), long-term storage (–80 °C for 52 days), three freeze–thaw cycles, and post-preparative stability (samples kept in an autosampler at 4 °C for more than 24 h). As it is difficult to evaluate ISO stability directly in tissues, only the short-term stability in tissue homogenates was assessed (6 h on ice). Similarly, post-preparative stability in processed tissue samples was assessed using liver homogenate as a representative, due to the complexity of the hepatic matrix. Stability was considered acceptable if 85–115% of the initial ISO concentration remained.

[2] = cited from earlier work; for Oral absorption: in vivo
[3] = enzymatic-hydrolysis approach; cited from earlier work

remaining at 24 h, 0.4 mg/mL ([1]; stored at room temperature for 24 h): 94.7 ± 0.3%
remaining at 480 h, 0.4 mg/mL ([1]; stored at −20 °C for 20 days): 105.3 ± 0.7%
Compound: C(=C\c1ccccc1)/c1ccccc1 [Internal standard, trans-stilbene, reference compound]

Compound: Oc1cc(O)cc(/C=C/c2ccc(O)cc2O)c1 [oxyresveratrol]
Oral absorption [2]: rapid oral absorption

Compound: Oc1cc(O)cc(/C=C/c2ccc(O)c(O)c2)c1 [piceatannol, reference compound]
Oral absorption [2]: rapid oral absorption
Sulfation [3]: extensive sulfation

Compound: COc1cc(/C=C/c2ccc(O)cc2)cc(OC)c1 [pterostilbene]
Brain bioavailability ([2]; compared with ISO's limited brain penetration after oral administration): significantly improved brain bioavailability

Reference: paper PMC12430278, “A Simple and Reliable Method for the Determination of Isorhapontigenin in Murine Biological Matrices: Application in a Tissue Distribution Study” (Molecules, 2025)
